Assay results as given in patent US20010041688A1, “Methods and compositions for the regulation of vasoconstriction” (priority 2000, published 2001).
pEC50: −log10 of the molar value.

Columns and labels:
coronary artery = assay: Contractile tension in isolated coronary artery (isometric myograph); conditions: isolated rat coronary artery; for Contractile response Emax: % of contraction evoked by 100 mM KCl
Procedure: (§1) Preparations were equilibrated unstretched for 30 min.

carotid artery = assay: Contractile tension in isolated carotid artery (isometric myograph); conditions: isolated rat carotid artery; for Contractile response Emax: % of contraction evoked by 100 mM KCl
Procedure: as §1

middle cerebral artery = assay: Contractile tension in isolated middle cerebral artery (isometric myograph); conditions: isolated rat middle cerebral artery; for Contractile response Emax: % of contraction evoked by 100 mM KCl; for pEC50: read-out: Contractile response EC50
Procedure: as §1

basilar artery [1] = assay: Contractile tension in isolated basilar artery (isometric myograph); conditions: isolated rat basilar artery; for Contractile response Emax: % of contraction evoked by 100 mM KCl; for pEC50: read-out: Contractile response EC50
Procedure: as §1

femoral artery = assay: Contractile tension in isolated femoral artery (isometric myograph); conditions: isolated rat femoral artery; for Contractile response Emax: % of contraction evoked by 100 mM KCl
Procedure: as §1

cerebral blood flow = assay: Relative cerebral blood flow by laser Doppler flowmetry in anesthetized rats; assay type: in vivo, rat; conditions: for Relative cerebral blood flow (rCBF) in cerebral cortex: 0.3 mg/kg infused into left internal carotid artery, anesthetized rats
Procedure: Pentobarbital-anaesthetized mechanically-ventilated male rats (250-300 g, Charles River) were maintained at 37.0±0.5° C. A femoral vein and artery were cannulated to monitor mean arterial blood pressure, heart rate and arterial blood gases. The left common carotid artery was ligated. The animals were placed in a stereotaxic frame and relative cerebral blood flow (rCBF) was measured by a laser Doppler flow probe (Model PF2B, Perimed) affixed to the thinned skull above the vascular territory of the left middle cerebral artery (2 mm posterior to Bregma, 3 mm lateral to midline). Changes in rCBF were expressed as a percentage of baseline and recorded for 20 minutes beginning at the onset of drug or vehicle infusion. S1P, DHS1P or vehicle were infused (100 μl/2 minutes) into the left internal carotid artery. Some rats were pretreated with suramin via infusion (200 μl/2 min) into the left femoral vein.

mouse basilar arteries = assay: Constriction of mouse basilar artery; conditions: data not shown
rabbit basilar arteries = assay: Constriction of rabbit basilar artery; conditions: data not shown
[2] = tested on: S1P-induced vasoconstriction of basilar artery; assay: Modulation of S1P-induced vasoconstriction in isolated basilar artery; parameters: species or system rat
basilar artery [3] = tested on: basilar artery; parameters: species or system rat
[4] = read-out: Contractile response EC50

Question: What does the source list for `NCCc1c[nH]c2ccc(O)cc12` [5-HT, 5-hydroxytryptamine]?
Answer: Contractile response Emax (coronary artery): 119.3 % KCl; pEC50 (coronary artery; [4]): 6.62; Contractile response Emax (carotid artery): 101.1 % KCl; pEC50 (carotid artery; [4]): 5.50; Contractile response Emax (middle cerebral artery): 73.2 % KCl; pEC50 (middle cerebral artery): 7.36; Contractile response Emax (basilar artery [1]): 99.5 % KCl; pEC50 (basilar artery [1]): 7.20; Contractile response Emax (femoral artery): 133.2 % KCl; pEC50 (femoral artery; [4]): 6.91

Question: `CCCCCCCCCCCCCCC[C@@H](O)[C@@H](N)COP(=O)(O)O` [DHS1P, dihydrosphingosine-1-phosphate] was tested. Which “Contractile response Emax” value (coronary artery) did it give?
Answer: The value was 15.9 % KCl.

Question: What about the “Contractile response Emax” value (carotid artery) of the same compound?
Answer: The value was 5.9 % KCl.

Question: And the “Relative cerebral blood flow (rCBF) in cerebral cortex” value (cerebral blood flow)?
Answer: Its value is “reduced rCBF, although less potently”.

Question: What about the “Contraction (in words)” value (basilar artery [1]) of the same compound?
Answer: Its value is “less effectively than S1P”.

Question: What about the “Contractile response Emax” value (basilar artery [1]) of the same compound?
Answer: Its value is 58.8 % KCl.

Question: What about the pEC50 (basilar artery [1]) of the same compound?
Answer: The pEC50 was 6.62.

Question: What about the “Contractile response Emax” value (femoral artery) of the same compound?
Answer: The value was 6.3 % KCl.

Question: `[Cl-].[K+]` [KCl, potassium chloride] was tested. Which “Contractile response to KCl” value (coronary artery; 100 mM KCl) did it give?
Answer: Its value is 1.87 mN/mm.

Question: And the “Contractile response to KCl” value (carotid artery; 100 mM KCl)?
Answer: The value was 2.28 mN/mm.

Question: What about the “Contractile response to KCl” value (middle cerebral artery; 100 mM KCl) of the same compound?
Answer: The value was 1.05 mN/mm.

Question: What about the “Contractile response to KCl” value (basilar artery [1]; 100 mM KCl) of the same compound?
Answer: Its value is 1.70 mN/mm.

Question: And the “Contractile response to KCl” value (femoral artery; 100 mM KCl)?
Answer: The value was 4.52 mN/mm.

Question: With `CCCCCCCCCCCCC/C=C/[C@@H](O)[C@@H](N)COP(=O)(O)O` [S1P, sphingosine-1-phosphate] as the compound, how does the “Contraction (in words)” value (coronary artery) read?
Answer: The value was “weakly constricted”.

Question: What about the “Contractile response Emax” value (coronary artery) of the same compound?
Answer: The value was 16.9 % KCl.

Question: And the “Constriction (in words)” value (mouse basilar arteries)?
Answer: Its value is “able to constrict”.

Question: What about the “Contraction (in words)” value (carotid artery) of the same compound?
Answer: The value was “unresponsive”.

Question: And the “Contractile response Emax” value (carotid artery)?
Answer: The value was 5.2 % KCl.

Question: And the “Relative cerebral blood flow (rCBF) in cerebral cortex” value (cerebral blood flow)?
Answer: Its value is “decreased”.

Question: What about the “Contraction (in words)” value (middle cerebral artery) of the same compound?
Answer: The value was “robust contraction”.

Question: And the “Contractile response Emax” value (middle cerebral artery)?
Answer: Its value is 77.6 % KCl.

Question: What about the pEC50 (middle cerebral artery) of the same compound?
Answer: Its pEC50 is 6.46.

Question: And the “Contraction (in words)” value (basilar artery [1])?
Answer: Its value is “robust contraction”.

Question: What about the “Contractile response Emax” value (basilar artery [1]) of the same compound?
Answer: The value was 96.7 % KCl.

Question: And the pEC50 (basilar artery [1])?
Answer: Its pEC50 is 6.55.

Question: And the “Contraction (in words)” value (femoral artery)?
Answer: Its value is “unresponsive”.

Question: What about the “Contractile response Emax” value (femoral artery) of the same compound?
Answer: The value was 3.6 % KCl.

Question: And the “Constriction (in words)” value (rabbit basilar arteries)?
Answer: The value was “able to constrict”.

Question: `CCCCCCCCCCCCC/C=C/[C@@H](O)[C@@H](N)CO` [sphingosine] was tested. Which “Contractile response to S1P after preincubation with sphingosine together with DMS” value ([2]; sphingosine 10 μM plus DMS 20 μM, added 30 min prior to S1P) did it give?
Answer: The value was “fully blocked”.

Question: For `Cc1ccc(C(=O)Nc2ccc(S(=O)(=O)O)c3cc(S(=O)(=O)O)cc(S(=O)(=O)O)c23)cc1NC(=O)c1cccc(NC(=O)Nc2cccc(C(=O)Nc3cc(C(=O)Nc4ccc(S(=O)(=O)O)c5cc(S(=O)(=O)O)cc(S(=O)(=O)O)c45)ccc3C)c2)c1` [suramin], which “S1P's effect on rCBF after suramin pretreatment” value (cerebral blood flow; suramin 16 mg/kg via femoral vein, S1P 0.3 mg/kg) is on record?
Answer: The value was “abolished”.

Question: What about the “Contractile response to S1P after preincubation with suramin” value ([2]; 10 μM suramin, added 30 min prior to S1P) of the same compound?
Answer: The value was “markedly depressed”.

Question: What about the “Contractile response to 5-HT after preincubation with suramin” value (basilar artery [3]; data not shown) of the same compound?
Answer: Its value is “did not modify”.

Question: Which results are given for Pertussis toxin?
Answer: Effect of toxin incubation on S1P-induced vasoconstriction (in words) ([2]; basilar artery segments treated in vitro with toxin): did not modify; Response to 5-HT1 receptor agonist 5-carboxamidotryptamine after incubation with toxin (basilar artery [3]; without toxin 92±10, n=4, p<0.05): 30±2 % of KCl-evoked contraction
